{"source": "ChEMBL document CHEMBL1201862", "about": "“PubChem BioAssay data set” (2004)", "key": {"[1]": {"target": "Neuropeptides B/W receptor type 1 (Homo sapiens, UniProt P48145)", "sequence (P48145 whole entry)": "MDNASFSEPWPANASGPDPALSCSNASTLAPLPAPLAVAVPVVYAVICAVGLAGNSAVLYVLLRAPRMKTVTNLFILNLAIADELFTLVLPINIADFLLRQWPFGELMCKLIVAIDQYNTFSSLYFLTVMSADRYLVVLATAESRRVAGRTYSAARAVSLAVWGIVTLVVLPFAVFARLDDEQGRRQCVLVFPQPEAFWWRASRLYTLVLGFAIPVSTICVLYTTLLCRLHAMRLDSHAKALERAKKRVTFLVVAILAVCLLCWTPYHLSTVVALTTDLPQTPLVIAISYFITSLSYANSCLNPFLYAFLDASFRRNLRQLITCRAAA", "test": "Fluorescence-based dose response cell-based high throughput screening assay to identify antagonists of the G-protein coupled receptor 7 (GPR7). [Related pubchem assays: 1952 (Screening assay (GPR7 antagonists).), 1880 (Summary AID.)]", "assay_type": "functional"}, "[2]": {"target": "Melanin-concentrating hormone receptor 1 (Homo sapiens, UniProt Q99705)", "sequence (Q99705 whole entry)": "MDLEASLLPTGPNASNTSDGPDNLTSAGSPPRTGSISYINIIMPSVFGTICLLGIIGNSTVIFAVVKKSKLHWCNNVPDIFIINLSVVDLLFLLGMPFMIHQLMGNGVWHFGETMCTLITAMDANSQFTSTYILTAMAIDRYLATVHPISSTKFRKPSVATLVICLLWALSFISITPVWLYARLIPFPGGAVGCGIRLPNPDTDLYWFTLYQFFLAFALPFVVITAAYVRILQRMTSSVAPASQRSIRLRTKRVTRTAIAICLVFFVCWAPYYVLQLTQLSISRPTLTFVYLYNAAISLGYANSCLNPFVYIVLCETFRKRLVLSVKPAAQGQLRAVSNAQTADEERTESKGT", "test": "Fluorescence-based counterscreen for antagonists of the G-protein coupled receptor 7 (GPR7): cell-based high throughput dose response assay to identify antagonists of the melanin-concentrating hormone receptor 1 (MCHR1).", "assay_type": "functional"}, "[3]": {"target": "Mitochondrial peptide methionine sulfoxide reductase (Bos taurus, UniProt P54149)", "sequence (P54149 whole entry)": "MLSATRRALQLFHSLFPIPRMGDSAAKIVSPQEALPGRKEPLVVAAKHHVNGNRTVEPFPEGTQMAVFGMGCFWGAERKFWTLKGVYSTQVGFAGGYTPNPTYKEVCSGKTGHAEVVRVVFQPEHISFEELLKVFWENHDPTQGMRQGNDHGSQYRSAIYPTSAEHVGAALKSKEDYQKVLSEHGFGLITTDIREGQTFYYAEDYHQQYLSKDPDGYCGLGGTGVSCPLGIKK", "assay_type": "functional"}, "[4]": {"target": "T1, Eukaryotic translation initiation factor 2-alpha kinase 3 (Homo sapiens, UniProt Q9NZJ5)", "T1 sequence (Q9NZJ5 whole entry)": "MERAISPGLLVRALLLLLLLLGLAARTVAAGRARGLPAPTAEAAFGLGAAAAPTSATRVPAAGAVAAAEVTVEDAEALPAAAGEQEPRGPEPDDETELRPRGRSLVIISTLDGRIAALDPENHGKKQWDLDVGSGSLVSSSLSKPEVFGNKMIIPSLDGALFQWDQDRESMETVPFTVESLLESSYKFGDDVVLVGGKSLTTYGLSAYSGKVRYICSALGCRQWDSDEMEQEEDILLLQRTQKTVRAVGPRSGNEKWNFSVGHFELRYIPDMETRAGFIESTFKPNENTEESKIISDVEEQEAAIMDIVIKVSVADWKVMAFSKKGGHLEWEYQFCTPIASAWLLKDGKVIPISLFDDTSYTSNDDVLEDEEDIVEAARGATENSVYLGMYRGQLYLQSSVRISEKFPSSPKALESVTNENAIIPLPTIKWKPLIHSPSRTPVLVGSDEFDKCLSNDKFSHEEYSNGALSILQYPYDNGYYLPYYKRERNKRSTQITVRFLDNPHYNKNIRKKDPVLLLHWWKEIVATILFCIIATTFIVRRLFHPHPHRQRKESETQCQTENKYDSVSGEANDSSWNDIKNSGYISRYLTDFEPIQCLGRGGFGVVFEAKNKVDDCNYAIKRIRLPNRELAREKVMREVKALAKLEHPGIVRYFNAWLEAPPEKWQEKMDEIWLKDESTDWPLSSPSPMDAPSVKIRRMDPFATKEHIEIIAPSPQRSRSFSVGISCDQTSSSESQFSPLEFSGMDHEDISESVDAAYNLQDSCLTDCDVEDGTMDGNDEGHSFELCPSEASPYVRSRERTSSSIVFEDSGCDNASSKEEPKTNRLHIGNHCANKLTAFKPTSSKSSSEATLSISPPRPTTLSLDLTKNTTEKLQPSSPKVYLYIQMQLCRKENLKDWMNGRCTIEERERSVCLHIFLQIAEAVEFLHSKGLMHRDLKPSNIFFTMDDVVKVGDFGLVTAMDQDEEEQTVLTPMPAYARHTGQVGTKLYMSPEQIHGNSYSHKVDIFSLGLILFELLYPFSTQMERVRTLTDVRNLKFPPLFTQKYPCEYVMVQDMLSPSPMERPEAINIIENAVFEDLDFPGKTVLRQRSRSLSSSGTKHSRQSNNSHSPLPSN", "test": "Dose response cell-based high-throughput screening assay to measure PERK inhibition. [Related pubchem assays: 1416 ]", "assay_type": "functional"}, "[5]": {"target": "T1, Eukaryotic translation initiation factor 2-alpha kinase 3", "test": "Counterscreen assay for PERK inhibitors: Dose response cell-based high throughput screening assay to measure inhibition of PERK at 6 hours. [Related pubchem assays: 1522, 1416 ]", "assay_type": "functional"}, "[6]": {"system": "Streptococcus", "test": "Luminescence Microorganism-Based Dose Response Follow up to Identify Compounds Cytotoxic to Streptococcus. [Related pubchem assays: 1677 (Project Summary), 1915, 1914, 1902 (Retest at Dose), 1900 (Counter Screen), 1662 (Primary HTS)]", "assay_type": "functional, organism-based"}}, "note": "The source made the active and inactive calls.", "data": [{"smiles": "Nc1c(C(=O)NCc2ccc3c(c2)OCO3)nnn1Cc1ccc(Br)cc1", "values": [{"measurement": "IC50", "setting": "[1]", "value": "> 43.8 µM (not active)"}, {"measurement": "IC50", "setting": "[2]", "value": "> 43.8 µM (not active)"}]}, {"smiles": "NC(=S)N/N=C/c1ccc(/C=N/NC(N)=S)cc1", "values": [{"measurement": "IC50", "setting": "[3]", "value": "155 µM (inactive)"}, {"measurement": "EC50", "setting": "[4]", "value": "> 55.7 µM (not active)"}, {"measurement": "EC50", "setting": "[5]", "value": "> 55.7 µM (not active)"}]}, {"smiles": "O=C(c1ccc(Cl)cc1)n1c2ccccc2c2ccccc21", "values": [{"measurement": "EC50", "setting": "[6]", "value": "> 500 µM (not active)"}]}]}
